Assay results: PubChem BioAssay (NCI)
“And” between values parts separate entries of the source, which are not always exact repeats. Equal values may be shown once.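 Protocol summary: plate cells (96-well), add compound at 5 concentrations, incubate 48 h, interpolate endpoints linearly. GI50 = concentration required for 50% inhibition of growth. TGI: concentration producing complete growth inhibition.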

Legend:
Experiment in all cases: NCI anticancer screen, dose series, 48 h
[1] = tested on: EKVX NSCLC
[2] = tested on: HCT-116 colon
[3] = tested on: HL-60(TB) leukemia
[4] = tested on: M14 melanoma
[5] = tested on: MDA-N
[6] = tested on: SR leukemia
[7] = tested on: UO-31 renal
[8] = tested on: NCI-H23 lung
[9] = tested on: SK-MEL-5 melanoma

Structure (SMILES) | TGI [1] [µM] | TGI [2] [µM] | TGI [3] [µM] | TGI [4] [µM] | TGI [5] [µM] | TGI [6] [µM] | TGI [7] | TGI [8] [µM] | TGI [9] [µM] | GI50 [3] [µM] | GI50 [8] [µM] | GI50 [7] [µM]
COC(=O)C1CCC(=O)N1C(c1cc(OC)c(OC)c(OC)c1)c1cccc2ccccc12 (configuration not stated) | > 100 | > 100 | > 100 | > 100 | > 100 | > 100 | > 100 µM |  |  |  |  | 
CC(C)C(=O)/C=C/S/C=C/C(=O)C(C)C | 90.9 |  |  | 20.2 |  |  | 62.7 µM | 7.57 | 21.7 |  |  | 
CCOC(=O)C(=CNC(=S)N=Nc1c(O)[nH]c2ccccc12)C(=O)OCC |  | > 100 | > 100 | > 100 | > 100 | > 100 | > 100 µM | > 100 | > 100 |  |  | 
CCN(CC)CCn1c(=O)c2c(C)c3oc4ccccc4oc3c(C)c2c1=O | > 100 | > 100 | > 100 | > 100 | > 100 |  |  |  | > 100 |  |  | 
Cc1c(Cl)cccc1N=NC(=O)NNc1cccc(Cl)c1C |  | 28.6 | 38.1 | 35.7 | 31 | 95 | 26.3 µM | 33.2 | 28.6 |  |  | 
CCOC(=O)CCN1C(=O)C(=O)N(c2ccc(OC)cc2)C1=S | > 100 | > 100 | > 100 |  | > 100 | > 100 | > 100 µM | > 100 | > 100 |  |  | 
NCCCNOCCCN |  | > 100 |  | > 100 | > 100 | > 100 | > 100 µM | > 100 | > 100 |  |  | 
COC(=O)CNC(=O)CCC(C)[C@H]1CCC2C3C(C[C@H](OC(C)=O)[C@@]21C)[C@@]1(C)CCC2(C[C@H]1C[C@H]3OC(C)=O)OOC1(CC[C@]3(C)C4C[C@H](OC(C)=O)[C@@]5(C)C(CC[C@@H]5C(C)CCC(=O)NCC(=O)OC)C4[C@H](OC(C)=O)C[C@@H]3C1)OO2 (some centres not stated) | 1.78 | 9.1 | 2.37 | 7.96 | > 50 |  | 1.51 µM | 3.66 |  |  |  | 
O=C(O)/C(=C\c1ccc(O)cc1)c1cccc2ccccc12 | > 100 | > 100 |  | > 100 | > 100 | > 100 | > 100 µM | > 100 | > 100 |  |  | 
COC(=O)CCNc1c2ccccc2nc2cccc([N+](=O)[O-])c12 |  | 1.11 | 0.028 |  | 0.00136 |  | 0.00492 µM and 0.0113 µM |  |  | 0.00274 | 1.26 | 0.00139
NC(=O)CC(N)C(=O)NC(Cc1ccccc1)C(=O)NC(Cc1ccccc1)NC(=O)C(Cc1c[nH]c2ccccc12)C(=O)O (configuration not stated) | > 100 | > 100 |  | > 100 |  |  | > 100 µM | > 100 | > 100 |  |  | 
COc1c(Br)cc2ccccc2c1-c1c(OC)c(Br)cc2ccccc12 | > 100 |  | > 100 | > 100 | > 100 |  | > 100 µM | > 100 | > 100 |  |  | 
CCOC(=O)[C@@]1(C)CC(O)C(=O)N1C (some centres not stated) | > 100 | > 100 | > 100 | > 100 |  | > 100 | > 100 µM | > 100 | > 100 |  |  | 
Cc1cc(Nc2ccc(NS(C)(=O)=O)cc2)c2c(ccc3nccc32)[nH]1 | > 100 | 37.9 |  | 31.1 | 31.5 |  | > 100 µM | 49.6 | 29.1 |  |  | 
CCCCSC1=N/C(=C\c2ccc(N(C)C)cc2)C(=O)N1 | 76.5 | 74.9 | > 100 | > 100 | > 100 |  |  | > 100 | > 100 |  |  | 
c1ccc(Nc2nn3c(CCCCCCCCc4nnc5sc(Nc6ccccc6)nn45)nnc3s2)cc1 | > 100 | > 100 |  | 35.2 | 46.6 | 38.3 | 69.9 µM | > 100 | 24.6 |  |  | 
CN(O)C(=O)CCCC(=O)NCC(C)(C)CNC(=O)CCCC(=O)N(C)O | > 100 |  | > 100 | > 100 | > 100 | > 100 | > 100 µM | > 100 | > 100 |  |  | 
CC(=O)O[C@H]1C(=O)[C@@]2(C)[C@H]([C@H](OC(=O)c3ccccc3)[C@]3(O)C[C@H](OC(=O)[C@H](O)[C@@H](NC(=O)c4ccccc4)c4cccc(N(C)C)c4)C(C)=C1C3(C)C)[C@]1(OC(C)=O)CO[C@@H]1C[C@@H]2O | > 75 | > 61.4 | 0.0414 |  | 0.0238 | 9.71 | > 64.6 µM | > 75 | 11.3 |  |  | 
Cc1cc2c(c(S(=O)(=O)c3ccccc3[N+](=O)[O-])c1)NCCC2 | > 100 |  | > 100 | > 100 | > 100 | > 100 | > 100 µM | > 100 | > 100 |  |  | 
N#Cc1cc(Sc2ccc(N)c(C#N)c2)ccc1N | 50.5 | 34.4 | 6.49 | 47.8 | 24.2 |  | > 100 µM |  | 39 |  |  | 
CN(C)CCOc1ccc(-c2c(Oc3ccccc3)c(=O)oc3ccccc23)cc1 | 27.5 | 15.5 |  | 4.63 | 4.7 | 19.4 | 19.9 µM | 28.6 | 13.1 |  |  | 
O[C@@H]1CCC[C@@H]2NC[C@@H](c3ccc4c(c3)OCO4)[C@H]12 | > 100 |  | > 100 | > 100 | > 100 | > 100 | > 100 µM | > 100 | > 100 |  |  | 
C/C=C(\C)C(=O)O[C@@H]1CC(C)(C)CC2C3=CCC4[C@]56CC[C@](O)(OC5)C(C)(C)C6CC[C@@]4(C)C3(C)CC[C@]21C(=O)O (some centres not stated) | > 100 | > 100 | > 100 | > 100 | > 100 |  |  | > 100 | > 100 |  |  | 
Nc1ccc2ccc(N3CCNCC3)nc2n1 | > 100 | > 100 | > 100 | > 100 | > 100 | > 100 | > 100 µM | > 100 |  |  |  | 
CCC(CC)(CO)CNc1cc(Cl)nc(N)n1 | > 100 | > 100 | > 100 |  | > 100 | > 100 | > 100 µM | > 100 | > 100 |  |  | 
CCCCCCCCP(=O)(O)OP(=O)(O)OCC1OC(n2ccc(N)nc2=O)C(O)C1O (configuration not stated) | > 100 | > 100 | > 100 | > 100 | > 100 |  | > 100 µM | > 100 | > 100 |  |  | 
